Assay results reported in publication PMC8629109 (Journal of medicinal chemistry, 2020).
Read-outs that look alike come from different tables or passages of the source. Each block holds one compound with its values, some of them ahead of it.

Key:
mGluR2 [1] = molecular target: mGluR2 (Rattus norvegicus, UniProt P31421); assay: PET imaging and blocking studies in rat brain; type: in vivo, Sprague-Dawley rats; conditions: pretreatment 4 mg/kg i.v. 10 min before [11C]13, 10–30 min time window
[2] = PAMPA high / low permeability standard, value as stated, ref not given; cited from earlier work
mGluR2 [3] = molecular target: T1, mGluR2 (Homo sapiens, UniProt Q14416); assay: GloSensor cAMP biosensor assay, mGluR2 PAM activity; conditions: read-out: EC50, mGluR2 PAM activity; in the presence of EC20 amount of L-glutamate; intracellular cAMP
mGluR2 [4] = molecular target: T1, mGluR2; assay: Competitive binding assay with [3H]JNJ-46281222 in mGluR2 transfected CHO cells
[5] = Plasma stability in rat serum; type: in vitro ADME; conditions: 37 °C
[6] = Rat liver microsomal stability; type: in vitro ADME; conditions: Sprague-Dawley, liver microsomes, pH 7.4
[7] = Solution stability in aqueous buffers; type: physicochemical
recombinant human P-gp = recombinant human P-gp (Homo sapiens, UniProt P08183); assay: Pgp-Glo assay, P-gp ATPase activity; conditions: compared with basal and verapamil activities; test compound 200 μM
[8] = system: other mGluR subtypes (mGluR1, mGluR3, mGluR4, mGluR5, mGluR6, mGluR8); assay: Selectivity among mGluR subtypes; conditions: versus mGluR2

T1 sequence (Q14416 19-872): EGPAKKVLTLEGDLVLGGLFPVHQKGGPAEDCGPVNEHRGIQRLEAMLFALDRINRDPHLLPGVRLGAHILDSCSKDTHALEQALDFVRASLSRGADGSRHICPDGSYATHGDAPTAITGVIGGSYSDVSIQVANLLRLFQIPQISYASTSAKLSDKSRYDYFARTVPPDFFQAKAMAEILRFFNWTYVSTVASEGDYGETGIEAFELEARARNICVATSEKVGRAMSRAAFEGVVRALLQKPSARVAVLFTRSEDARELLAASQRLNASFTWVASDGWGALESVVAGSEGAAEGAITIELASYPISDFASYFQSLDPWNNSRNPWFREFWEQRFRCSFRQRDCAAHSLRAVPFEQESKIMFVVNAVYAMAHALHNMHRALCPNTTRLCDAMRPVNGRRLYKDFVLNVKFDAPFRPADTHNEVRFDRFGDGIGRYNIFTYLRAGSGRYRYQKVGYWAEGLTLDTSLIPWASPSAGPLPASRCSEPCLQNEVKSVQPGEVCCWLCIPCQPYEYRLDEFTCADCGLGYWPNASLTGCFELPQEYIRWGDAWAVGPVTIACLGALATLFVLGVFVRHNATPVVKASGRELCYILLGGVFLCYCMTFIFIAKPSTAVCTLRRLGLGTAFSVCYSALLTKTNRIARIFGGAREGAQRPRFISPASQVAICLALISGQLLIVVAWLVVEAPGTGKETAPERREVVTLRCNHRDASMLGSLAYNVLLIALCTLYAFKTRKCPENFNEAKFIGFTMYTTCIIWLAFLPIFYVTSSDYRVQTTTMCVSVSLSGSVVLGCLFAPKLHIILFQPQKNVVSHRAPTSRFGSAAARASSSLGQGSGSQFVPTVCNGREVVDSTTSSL
Chain of mGluR2 (Rattus norvegicus, UniProt P31421) (P31421 19-872): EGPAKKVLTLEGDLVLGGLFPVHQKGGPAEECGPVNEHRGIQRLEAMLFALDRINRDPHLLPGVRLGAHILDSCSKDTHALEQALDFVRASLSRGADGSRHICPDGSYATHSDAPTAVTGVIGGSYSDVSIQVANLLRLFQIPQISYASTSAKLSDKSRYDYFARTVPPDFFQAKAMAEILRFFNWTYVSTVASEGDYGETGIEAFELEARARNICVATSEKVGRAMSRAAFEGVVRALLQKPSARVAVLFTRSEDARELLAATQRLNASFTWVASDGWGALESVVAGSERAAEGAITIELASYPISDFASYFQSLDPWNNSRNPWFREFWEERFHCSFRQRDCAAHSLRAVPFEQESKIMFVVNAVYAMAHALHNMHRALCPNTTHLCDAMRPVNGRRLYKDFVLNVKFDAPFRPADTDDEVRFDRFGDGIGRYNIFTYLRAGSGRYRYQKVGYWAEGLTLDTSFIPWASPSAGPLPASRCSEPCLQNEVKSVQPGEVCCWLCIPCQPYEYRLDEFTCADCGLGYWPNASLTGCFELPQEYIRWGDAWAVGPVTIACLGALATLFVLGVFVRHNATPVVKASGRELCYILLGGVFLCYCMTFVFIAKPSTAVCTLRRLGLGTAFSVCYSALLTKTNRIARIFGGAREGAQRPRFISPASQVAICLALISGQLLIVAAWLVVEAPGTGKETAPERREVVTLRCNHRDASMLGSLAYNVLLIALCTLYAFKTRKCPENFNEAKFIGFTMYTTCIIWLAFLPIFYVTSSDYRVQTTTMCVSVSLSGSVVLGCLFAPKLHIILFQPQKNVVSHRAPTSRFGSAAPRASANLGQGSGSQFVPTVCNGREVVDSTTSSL
Chain of recombinant human P-gp (P08183 whole entry): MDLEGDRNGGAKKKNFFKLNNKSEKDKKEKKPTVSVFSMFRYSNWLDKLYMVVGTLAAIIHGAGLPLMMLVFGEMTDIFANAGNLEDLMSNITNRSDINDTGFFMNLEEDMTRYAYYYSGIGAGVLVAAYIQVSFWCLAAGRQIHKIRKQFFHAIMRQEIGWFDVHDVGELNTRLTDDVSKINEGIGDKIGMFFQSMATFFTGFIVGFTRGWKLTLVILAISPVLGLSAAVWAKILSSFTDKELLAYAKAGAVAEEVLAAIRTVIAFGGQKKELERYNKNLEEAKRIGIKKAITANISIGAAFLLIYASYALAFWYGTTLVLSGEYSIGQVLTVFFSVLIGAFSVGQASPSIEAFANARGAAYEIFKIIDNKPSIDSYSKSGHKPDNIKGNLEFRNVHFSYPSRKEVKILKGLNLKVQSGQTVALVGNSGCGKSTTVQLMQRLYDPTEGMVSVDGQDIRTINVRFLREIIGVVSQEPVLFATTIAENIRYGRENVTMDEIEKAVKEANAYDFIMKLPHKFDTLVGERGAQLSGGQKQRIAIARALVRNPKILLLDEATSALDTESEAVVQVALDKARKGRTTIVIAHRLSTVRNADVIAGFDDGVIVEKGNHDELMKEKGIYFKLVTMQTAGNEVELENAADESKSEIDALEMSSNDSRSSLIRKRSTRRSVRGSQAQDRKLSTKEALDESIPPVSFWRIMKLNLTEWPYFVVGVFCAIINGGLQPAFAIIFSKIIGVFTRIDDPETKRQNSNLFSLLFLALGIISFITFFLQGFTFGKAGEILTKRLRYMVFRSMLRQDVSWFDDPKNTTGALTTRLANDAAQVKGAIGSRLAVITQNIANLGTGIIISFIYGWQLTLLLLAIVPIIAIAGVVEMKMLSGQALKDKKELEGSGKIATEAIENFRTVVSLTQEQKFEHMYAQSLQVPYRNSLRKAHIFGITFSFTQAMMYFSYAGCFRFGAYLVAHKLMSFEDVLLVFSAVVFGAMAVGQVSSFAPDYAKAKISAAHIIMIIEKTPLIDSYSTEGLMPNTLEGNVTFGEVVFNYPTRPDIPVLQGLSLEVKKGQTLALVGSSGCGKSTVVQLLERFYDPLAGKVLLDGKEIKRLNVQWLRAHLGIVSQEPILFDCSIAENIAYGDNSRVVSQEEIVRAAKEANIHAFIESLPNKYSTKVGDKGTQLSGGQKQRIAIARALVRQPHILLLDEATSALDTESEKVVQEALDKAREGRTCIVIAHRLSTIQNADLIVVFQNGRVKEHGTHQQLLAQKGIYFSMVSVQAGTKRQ

SMILES: Fc1ccc(N2CCN(Cc3ccn4c(CC5CC5)nnc4c3C(F)(F)F)CC2)c(F)c1 [Compound 17, 3-(Cyclopropylmethyl)-7-((4-(2,4-difluorophenyl)piperazin-1-yl)methyl)-8-(trifluoromethyl)[1,2,4]triazolo[4,3-a]pyridine, reference compound]
decrease of [11C]13 uptake in different brain areas (mGluR2 [1]): 28–37%

SMILES: Cn1c(=O)c2[nH]cnc2n(C)c1=O [theophylline]
Pe of quality control standard [2]: 1.2 nm/s

SMILES: COc1cc(C(F)(F)F)ccc1OC[C@@H]1[C@H]2CN(Cc3nc4ncccc4n3C)C[C@@H]12 [Compound 15, 2-(((1R,5S,6R)-6-((2-methoxy-4-(trifluoromethyl)phenoxy)methyl)-3-azabicyclo[3.1.0]hexan-3-yl)methyl)-1-methyl-1H-imidazo[4,5-b]pyridine]
EC50 (mGluR2 [3]): 7.8 µM
IC50 (mGluR2 [4]; read-out: IC50 ± SEM, mGluR2 transfected CHO cells, 10 nM [3H]JNJ-46281222): 0.0105 ± 0.0079 µM

SMILES: COc1cc(C(F)(F)F)ccc1C1CCN(Cc2nc3ncccc3n2C)CC1 [Compound 13, 2-((4-(2-Methoxy-4-(trifluoromethyl)phenyl)piperidin-1-yl)methyl)-1-methyl-1H-imidazo[4,5-b]pyridine]
The plasma stability: the intact ± SEM at 120 min [5]: 96.6 ± 2.1%
half-life at 3 μM [6]: 1.24 h
The solution stability: the intact ± SEM at 120 min ([7]; pH = 5.0, 37 °C): 95.3 ± 0.3%
The solution stability: the intact ± SEM at 120 min ([7]; pH = 7.4, 37 °C): 94.5 ± 0.4%
The solution stability: the intact ± SEM at 120 min ([7]; pH = 9.4, 37 °C): 96.1 ± 0.7%
enhancement of radioactivity uptake in the different brain areas (mGluR2 [1]): 33–49%
P-gp ATPase activity (recombinant human P-gp): moderate
P-gp substrate assessment (recombinant human P-gp): not a P-gp substrate
selectivity against other mGluR subtypes [8]: > 100 fold
IC50 (mGluR2 [4]): 0.0076 ± 0.0009 µM

Results, then the compound that gave them:

The plasma stability: the intact ± SEM at 120 min [5]: 43.2 ± 0.8%
SMILES: COc1ccc([C@@H]2Sc3ccccc3N(CCN(C)C)C(=O)[C@@H]2OC(C)=O)cc1 [Diltiazem, reference compound]

half-life at 3 μM [6]: 0.07 h
microsomal CLint at 3 μM [6]: 317 µL/min/mg
SMILES: COc1cc(NC(=O)c2ccccn2)ccc1Cl [ML128, reference compound]

The plasma stability: the intact ± SEM at 120 min [5]: 89.2 ± 0.6%
half-life at 3 μM [6]: 1.23 h
microsomal CLint at 3 μM [6]: 18.1 µL/min/mg
IC50 (mGluR2 [4]): 0.0105 ± 0.0005 µM
SMILES: COc1cc(C(F)(F)F)ccc1C1CCN(Cc2nc3nccc4c3n2CCC4)CC1 [Compound 14, 2-((4-(2-Methoxy-4-(trifluoromethyl)phenyl)piperidin-1-yl)methyl)-5,6-dihydro-4H-imidazo [4,5,1-ij][1,7]naphthyridine]
